In patent US20260109707A1, “HETEROBIFUNCTIONAL COMPOUNDS AND METHODS OF TREATING DISEASE” (Halda Therapeutics OpCo. Inc., priority 2022, published 2026):
Where two headings read alike, the source gives them in different places.

Tests used:
[1] = test system: T-Rex 293 cell line SC3 cells having increased expression of androgen receptor protein due to exposure to doxycycline; assay: Cellular growth inhibition assay, T-Rex 293 SC3 cells with doxycycline (CellTiter-Glo, 72 hours); format: cell-based; conditions: T-Rex 293 SC3 cells with increased androgen receptor expression due to doxycycline (10 ng/mL)
Outline: (§1)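 Doxycycline (10 ng/mL) was either included or omitted to toggle wild-type androgen receptor expression in SC3 cells, a T-Rex 293 clone, grown in stripped-serum, phenol red-free medium. After 72 hours with compound, viable cells were quantified by CellTiter-Glo 2.0.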

VCaP cells = assay: Cellular growth inhibition assay for VCaP cells (CellTiter-Glo, 72 hours); format: cell-based, human
Outline: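 Luminescent viability signal after 72 h of compound exposure gave GI50 values by four-parameter nonlinear regression. Compounds were added in 0.5% DMSO to cells plated 24 h earlier at 5000/well in DMEM containing 10% FBS.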

[2] = test system: T-Rex 293 cell line SC3 cells lacking increased expression of androgen receptor protein; assay: Cellular growth inhibition assay, T-Rex 293 SC3 cells without doxycycline (CellTiter-Glo, 72 hours); format: cell-based; conditions: T-Rex 293 cell line SC3 cells not exposed to doxycycline (lacking increased androgen receptor expression)
Outline: as §1

| SMILES | GI50 [1] | GI50 (VCaP cells) | GI50 [2] | GI50 ([1]; 72 h) | GI50 (VCaP cells; Homo sapiens, VCaP, 72 h) | GI50 ([2]; 72 h) |
| --- | --- | --- | --- | --- | --- | --- |
| Cc1sc2c(c1C)C(c1ccc(OC3CC(CC4CCN(c5ccc(C(=O)N[C@H]6CC[C@H](Oc7ccc(C#N)c(Cl)c7)CC6)nn5)CC4)C3)cc1)=NC1(CC1)c1nnc(C)n1-2 (stereo partly drawn) [I-529] | < 500 nM | < 500 nM | > 3000 nM |  |  |  |
| Cc1sc2c(c1C)C(c1ccc(C3CCC4(CC3)CCN(c3ccc(C(=O)N[C@H]5CC[C@H](Oc6ccc(C#N)c(Cl)c6)CC5)nn3)C4)cn1)=NC1(CC1)c1nnc(C)n1-2 (stereo partly drawn) [I-718] | 1500 to 3000 nM | < 500 nM | > 3000 nM |  |  |  |
| Cc1sc2c(c1C)C(c1ccc(C3CCC4(CCN(c5ccc(C(=O)N[C@H]6CC[C@H](Oc7ccc(C#N)c(Cl)c7)CC6)nn5)CC4)C3)cc1)=N[C@@H](C)c1nnc(C)n1-2 (stereo partly drawn) [I-497] | < 500 nM | 1500 to 3000 nM | > 3000 nM |  |  |  |
| Cc1sc2c(c1C)C(c1ccc(OCC3CCC4(C3)CN(c3ccc(C(=O)N[C@H]5CC[C@H](Oc6ccc(C#N)c(Cl)c6)CC5)nn3)CCO4)cc1)=N[C@@H](C)c1nnc(C)n1-2 (stereo partly drawn) [I-638] | < 500 nM | 1500 to 3000 nM | < 500 nM |  |  |  |
| Cc1sc2c(c1C)C(c1ccc(Cl)cc1)=N[C@@H](CC(=O)NCCOCCOCCOCCOCCOCCOCCOC1CCN(c3ccc(C(=O)N[C@H]4CC[C@H](Oc5ccc(C#N)c(Cl)c5)CC4)nn3)CC1)c1nnc(C)n1-2 [I-4, N-[4-(3-chloro-4-cyano-phenoxy)cyclohexyl]-6-[14-[2-[2-[2-[2-[2-[2-[2-[[2-[(9S)-7-(4-chlorophenyl)-4,5,13-trimethyl-3-thia-1,8,11,12-tetrazatricyclo[8.3.0.2,6]trideca-2(6),4,7,10,12-pentaen-9-yl]acetyl]amino]ethoxy]ethoxy]ethoxy]ethoxy]ethoxy]ethoxy]ethoxy]-1-piperidyl]pyridazine-3-carboxamide] |  |  |  | 500 to 1500 nM | < 500 nM | > 3000 nM |
| Cc1sc2c(c1C)C(c1ccc(C#CC3CC4(CCCN(c5ccc(C(=O)N[C@H]6CC[C@H](Oc7ccc(C#N)c(Cl)c7)CC6)nn5)C4)C3)cn1)=NC(C)c1nnc(C)n1-2 (stereo partly drawn) [I-455] | < 500 nM | < 500 nM | > 3000 nM |  |  |  |
| Cc1sc2c(c1C)C(c1ccc(OCC3CC4(CCCN(c5ccc(C(=O)N[C@H]6CC[C@H](Oc7ccc(C#N)c(Cl)c7)CC6)nn5)C4)C3)cc1)=NCc1nnc(C)n1-2 (stereo partly drawn) [I-475] |  | < 500 nM | > 3000 nM | < 500 nM |  |  |
| Cc1sc2c(c1C)C(c1ccc(C3CCC4(CCCN(c5ccc(C(=O)N[C@H]6CC[C@H](Oc7ccc(C#N)c(Cl)c7)CC6)nn5)C4)CC3)cc1)=NC(C(F)(F)F)c1nnc(C)n1-2 (stereo partly drawn) [I-696] | > 3000 nM | > 3000 nM | > 3000 nM |  |  |  |
| Cc1sc2c(c1C)C(c1ccc(NCC3(F)CCN(c4ncc(C(=O)N[C@H]5CC[C@H](Oc6ccc(C#N)c(Cl)c6)CC5)cn4)CC3)cc1)=NC(Cc1ncco1)c1nnc(C)n1-2 (stereo partly drawn) [I-784] |  |  |  | < 500 nM | < 500 nM | < 500 nM |
| Cc1sc2c(c1C)C(c1ccc(N3CCC4(CC3)CCN(c3ccc(C(=O)N[C@H]5CC[C@H](Oc6ccc(C#N)c(Cl)c6)CC5)nn3)C4)cn1)=NC1(CC1)c1nnc(C)n1-2 [I-502] |  |  |  | < 500 nM | > 3000 nM | > 3000 nM |
| Cc1sc2c(c1C)C(c1ccc(OCC3CC4(CCCN(c5ccc(C(=O)N[C@H]6CC[C@H](Oc7ccc(C#N)c(Cl)c7)CC6)nn5)C4)C3)cc1)=NC1(CC1)c1nnc(C)n1-2 (stereo partly drawn) [I-470] |  | 500 to 1500 nM | 500 to 1500 nM | < 500 nM |  |  |
| Cc1sc2c(c1C)C(c1cccc(CC3CCC4(CC3)CCN(c3ccc(C(=O)N[C@H]5CC[C@H](Oc6ccc(C#N)c(Cl)c6)CC5)nn3)C4)c1)=N[C@@H](C)c1nnc(C)n1-2 (stereo partly drawn) [I-713] | > 3000 nM |  | > 3000 nM |  | < 500 nM |  |
| Cc1sc2c(c1C)C(c1ccccc1N1CC3(CCN(c4ccc(C(=O)N[C@H]5CC[C@H](Oc6ccc(C#N)c(Cl)c6)CC5)nn4)CC3)C1)=N[C@@H](C)c1nnc(C)n1-2 [I-751] |  |  |  | < 500 nM | < 500 nM | < 500 nM |
| Cc1sc2c(c1C)C(c1ccc(N3C[C@@H]4CN(c5ccc(C(=O)N[C@H]6CC[C@H](Oc7ccc(C#N)c(Cl)c7)CC6)nn5)C[C@@H]4C3)cc1F)=N[C@@H](C)c1nnc(C)n1-2 [I-676] |  |  |  | < 500 nM | < 500 nM | < 500 nM |
| Cc1sc2c(c1C)C(c1ccc(N3CCC4(CC3)CCN(c3ccc(C(=O)N[C@H]5CC[C@H](Oc6ccc(C#N)c(Cl)c6)CC5)nn3)CC4)cc1)=N[C@@H](C)c1nnc(C)n1-2 [I-485] |  |  |  | < 500 nM | < 500 nM | < 500 nM |
| Cc1sc2c(c1C)C(c1ccc(OC3CCC4(C3)CN(c3ccc(C(=O)N[C@H]5CC[C@H](Oc6ccc(C#N)c(Cl)c6)CC5)nn3)CCO4)cc1)=N[C@@H](C)c1nnc(C)n1-2 (stereo partly drawn) [I-539] |  | 500 to 1500 nM | > 3000 nM | < 500 nM |  |  |
| Cc1sc2c(c1C)C(c1ccc(OCC3CCC4(C3)CN(c3ccc(C(=O)N[C@H]5CC[C@H](Oc6ccc(C#N)c(Cl)c6)CC5)nn3)CCO4)cc1)=N[C@@H](C)c1nnc(C)n1-2 (stereo partly drawn) [I-639] | < 500 nM | > 3000 nM | > 3000 nM |  |  |  |

| SMILES | GI50 [1] | GI50 (VCaP cells) | GI50 [2] | GI50 ([1]; 72 h) | GI50 (VCaP cells; Homo sapiens, VCaP, 72 h) | GI50 ([2]; 72 h) |
| --- | --- | --- | --- | --- | --- | --- |
| Cc1sc2c(c1C)C(c1cccc(CC3CC4(CCCN(c5ccc(C(=O)N[C@H]6CC[C@H](Oc7ccc(C#N)c(Cl)c7)CC6)nn5)C4)C3)c1)=N[C@@H](C)c1nnc(C)n1-2 (stereo partly drawn) [I-712] | < 500 nM | < 500 nM | > 3000 nM |  |  |  |
| Cc1sc2c(c1C)C(c1ccc(C#CC3CCC(Cc4ccc(C(=O)N[C@H]5CC[C@H](Oc6ccc(C#N)c(Cl)c6)CC5)nn4)CC3)cc1)=N[C@@H](Cc1ncco1)c1nnc(C)n1-2 (stereo partly drawn) [I-546] |  |  |  | < 500 nM | 500 to 1500 nM | < 500 nM |
| Cc1sc2c(c1C)C(c1ccc(OC3CC4(C3)CC3(CCN(c5ccc(C(=O)N[C@H]6CC[C@H](Oc7ccc(C#N)c(Cl)c7)CC6)nn5)CC3)C4)cn1)=N[C@@H](C)c1nnc(C)n1-2 [I-465] |  |  |  | < 500 nM | < 500 nM | > 3000 nM |
| Cc1sc2c(c1C)C(c1ccc(CC3CCC4(CCCN(c5ccc(C(=O)N[C@H]6CC[C@H](Oc7ccc(C#N)c(Cl)c7)CC6)nn5)C4)C3)nc1)=N[C@@H](C)c1nnc(C)n1-2 (stereo partly drawn) [I-666] | < 500 nM | < 500 nM | > 3000 nM |  |  |  |
| Cc1sc2c(c1C)C(c1ccc(C3CCC4(CC3)CCN(c3ccc(C(=O)N[C@H]5CC[C@H](Oc6ccc(C#N)c(Cl)c6)CC5)nn3)C4)cc1)=N[C@@H](C)c1nnc(C)n1-2 (stereo partly drawn) [I-495] | > 3000 nM | < 500 nM | < 500 nM |  |  |  |
| Cc1sc2c(c1C)C(c1ccc(NC3CC4CCCC(C3)N4c3ncc(C(=O)N[C@H]4CC[C@H](Oc5ccc(C#N)c(Cl)c5)CC4)cn3)cc1)=NC(Cc1ncco1)c1nnc(C)n1-2 (stereo partly drawn) [I-799] | < 500 nM |  | > 3000 nM |  | < 500 nM |  |
| Cc1sc2c(c1C)C(c1cccc(OC3CCC4(CC3)CCN(c3ccc(C(=O)N[C@H]5CC[C@H](Oc6ccc(C#N)c(Cl)c6)CC5)nn3)C4)c1)=N[C@@H](C)c1nnc(C)n1-2 (stereo partly drawn) [I-709] | < 500 nM |  | > 3000 nM |  | < 500 nM |  |
| Cc1sc2c(c1C)C(c1ccc(N3C4CC(=O)CC3CN(c3ncc(C(=O)N[C@H]5CC[C@H](Oc6ccc(C#N)c(Cl)c6)CC5)cn3)C4)cc1)=NC(Cc1ncco1)c1nnc(C)n1-2 (stereo partly drawn) [I-802] | < 500 nM |  | 500 to 1500 nM |  | < 500 nM |  |
| Cc1sc2c(c1C)C(c1ccc(N3CCOC4(CCN(c5ncc(C(=O)N[C@H]6CC[C@H](Oc7ccc(C#N)c(Cl)c7)CC6)cn5)CC4)C3)cc1)=NC(Cc1ncco1)c1nnc(C)n1-2 (stereo partly drawn) [I-794] |  |  |  | < 500 nM | < 500 nM | > 3000 nM |
| Cc1sc2c(c1C)C(c1ccc(CC3CC4(CCN(c5ccc(C(=O)N[C@H]6CC[C@H](Oc7ccc(C#N)c(Cl)c7)CC6)nn5)CC4)C3)cc1)=NC1(CC1)c1nnc(C)n1-2 [I-444] |  |  |  | < 500 nM | < 500 nM | > 3000 nM |
| Cc1sc2c(c1C)C(c1ccc(C3CCC4(CCN(c5ccc(C(=O)N[C@H]6CC[C@H](Oc7ccc(C#N)c(Cl)c7)CC6)nn5)CC4)C3)cc1)=NC(C(F)(F)F)c1nnc(C)n1-2 (stereo partly drawn) [I-760] | < 500 nM | < 500 nM | > 3000 nM |  |  |  |
| Cc1sc2c(c1C)C(c1ccc(N3CCC4(CCN(c5ccc(C(=O)N[C@H]6CC[C@H](Oc7ccc(C#N)c(Cl)c7)CC6)nn5)C4)C3)c(F)c1)=N[C@@H](C)c1nnc(C)n1-2 (stereo partly drawn) [I-731] |  | 500 to 1500 nM |  | < 500 nM |  | < 500 nM |
| Cc1sc2c(c1C)C(c1ccccc1OC1CC3(CCCN(c4ccc(C(=O)N[C@H]5CC[C@H](Oc6ccc(C#N)c(Cl)c6)CC5)nn4)C3)C1)=N[C@@H](C)c1nnc(C)n1-2 (stereo partly drawn) [I-717] | > 3000 nM | > 3000 nM | > 3000 nM |  |  |  |
| COCC[C@@H]1N=C(c2ccc(CC3CC4(CCN(c5ccc(C(=O)N[C@H]6CC[C@H](Oc7ccc(C#N)c(Cl)c7)CC6)nn5)CC4)C3)cc2)c2c(sc(C)c2C)-n2c(C)nnc21 [I-660] |  |  |  | < 500 nM | < 500 nM | 500 to 1500 nM |
| Cc1sc2c(c1C)C(c1ccc(CC3CC4(CCCN(c5ccc(C(=O)N[C@H]6CC[C@H](Oc7ccc(C#N)c(Cl)c7)CC6)nn5)C4)C3)cn1)N[C@@H](Cc1ncco1)c1nnc(C)n1-2 (stereo partly drawn) [I-642] |  |  |  | < 500 nM | > 3000 nM | > 3000 nM |
| Cc1sc2c(c1C)C(c1ccc(COC3CCC4(C3)CN(c3ccc(C(=O)N[C@H]5CC[C@H](Oc6ccc(C#N)c(Cl)c6)CC5)nn3)CCO4)cc1)=N[C@@H](C)c1nnc(C)n1-2 (stereo partly drawn) [I-557] |  |  | < 500 nM | < 500 nM | < 500 nM |  |
| Cc1sc2c(c1C)C(c1ccc(CCCC3CCCN(c4ccc(C(=O)N[C@H]5CC[C@H](Oc6ccc(C#N)c(Cl)c6)CC5)nn4)CC3)cn1)=N[C@@H](C)c1nnc(C)n1-2 (stereo partly drawn) [I-700] | < 500 nM | < 500 nM | < 500 nM |  |  |  |
